Source: patent US8710021B2, “Inhibition of HRP-3 using modified oligonucleotides” (Bionucleon S.r.l., priority 2008, dated 2014)

Assays:
HRP-3 [1] = molecular target: T1, HRP-3 (Homo sapiens, UniProt Q9Y3E1); assay: 3T3 migration in vitro assay: prevention of HRP-3 function by DNA duplexes; format: cell-based, mouse
T1 construct: The HRP-3 coding region was cloned into the pET30 vector using EcoRI and NdeI as restriction sites; made in house; host or cells: E. coli BL21
Experimental: All the four DNA duplexes were tested in our 3T3 migration in vitro assay to see if they were able to prevent HRP-3 function by binding its PWWP domain (FIG. 13). […] The third column on the left is the negative control.

HRP-3 [2] = molecular target: T1, HRP-3; assay: HUVEC migration assay with Duplex 1 and HRP-3; format: cell-based; details: 50 nM; data not shown

T1 sequence (Q9Y3E1 whole entry): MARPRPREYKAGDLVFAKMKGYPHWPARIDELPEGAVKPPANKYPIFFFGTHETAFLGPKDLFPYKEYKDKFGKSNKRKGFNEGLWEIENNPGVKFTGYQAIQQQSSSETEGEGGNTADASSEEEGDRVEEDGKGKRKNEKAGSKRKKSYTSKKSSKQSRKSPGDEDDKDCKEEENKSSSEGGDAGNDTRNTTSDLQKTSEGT

Duplex 1: short (15 bp) duplex DNA, the duplex of Lukasik et al., designed to target HRP3 (FIG. 12) (chain 1 TACAACACCCACAAA; chain 2 TTTGTGGGTGTTGTA; chain 1: DNA, backbone and methylation of C not given here; chain 2: DNA, backbone not given here) [reference compound]
activity in abolishing the anti-migratory effect of HRP-3 on 3T3 cells (HRP-3 [1]): able to abolish the protein effect of HRP-3 | migration of 3T3 cells in presence of HRP-3 and duplex (HRP-3 [1]; 250 nM duplex with HRP-3): comparable with the control with FBS | influence of the duplex alone on 3T3 migration compared to control with FBS (HRP-3 [1]; 1000 nM, without HRP-3): does not have any influence on the migration | reversal of anti-migratory activity of HRP-3 on HUVEC (HRP-3 [2]): restore totally
